ChEMBL document CHEMBL4385661, “An investigation of targeted inhibition of transcription factor activity with pyrrole imidazole polyamide (PA) in chronic myeloid leukemia (CML) blast crisis cells” (2019)
Activity calls are given as the source filed them. No cut-off for these calls is given here.

Tests used:
Homo sapiens [1] = species: Homo sapiens; assay: Binding affinity to E2F1 consensus sequence DNA in human KCL22 cells assessed as reduction in PET112L gene expression at 3 uM incubated for 24 hrs by RT-qPCR analysis relative to control; assay type: cell-based
KCL-22 [2] = assay: Induction of cell cycle arrest in human KCL22 cells assessed as accumulation at G2-M phase at 3 uM incubated for 72 hrs by propidium iodide staining based flow cytometry analysis (reference value: 14%); assay type: functional
KCL-22 [3] = assay: Inhibition of cell expansion in human KCL22 cells at 0.3 to 3 uM incubated for 48 hrs by trypan blue dye exclusion counting method; assay type: functional, cell-based
Homo sapiens [4] = species: Homo sapiens; assay: Binding affinity to E2F1 consensus sequence DNA in human KCL22 cells assessed as reduction in PSMB8 gene expression at 3 uM incubated for 24 hrs by RT-qPCR analysis relative to control; assay type: cell-based
KCL-22 [5] = assay: Induction of cell cycle arrest in human KCL22 cells assessed as accumulation at subG0 phase at 3 uM incubated for 72 hrs by propidium iodide staining based flow cytometry analysis (reference value: 3.91%); assay type: functional
Homo sapiens [6] = species: Homo sapiens; assay: Binding affinity to E2F1 consensus sequence DNA in human KCL22 cells assessed as reduction in MRRF gene expression at 3 uM incubated for 24 hrs by RT-qPCR analysis relative to control; assay type: cell-based
Homo sapiens [7] = species: Homo sapiens; assay: Binding affinity to E2F1 consensus sequence DNA in human KCL22 cells assessed as reduction in SF3B4 gene expression at 3 uM incubated for 24 hrs by RT-qPCR analysis relative to control; assay type: cell-based
KCL-22 [8] = assay: Inhibition of cell expansion in human KCL22 cells at 3 uM incubated for 48 hrs in presence of 10 nM nilotinib by trypan blue dye exclusion counting method; assay type: functional, cell-based
Homo sapiens [9] = species: Homo sapiens; assay: Binding affinity to E2F1 consensus sequence DNA in human KCL22 cells assessed as reduction in ZNF354B gene expression at 3 uM incubated for 24 hrs by RT-qPCR analysis relative to control; assay type: cell-based
KCL-22 [10] = assay: Up-regulation of TRIM45 gene expression in human KCL22 cells at 3 uM incubated for 24 hrs by RT-qPCR analysis relative to control; assay type: functional, cell-based
Homo sapiens [11] = species: Homo sapiens; assay: Binding affinity to E2F1 consensus sequence DNA in human KCL22 cells assessed as reduction in MCM2 gene expression at 3 uM incubated for 24 hrs by RT-qPCR analysis relative to control; assay type: cell-based
Homo sapiens [12] = species: Homo sapiens; assay: Binding affinity to E2F1 consensus sequence DNA in human KCL22 cells assessed as reduction in GNA13 gene expression at 3 uM incubated for 24 hrs by RT-qPCR analysis relative to control; assay type: cell-based
KCL-22 [13] = assay: Inhibition of cell expansion in human KCL22 cells assessed as combination index at 3 uM incubated for 48 hrs in presence of 10 nM nilotinib by trypan blue dye exclusion counting method; assay type: functional
KCL-22 [14] = assay: Induction of cell cycle arrest in human KCL22 cells assessed as accumulation at S phase at 3 uM incubated for 72 hrs by propidium iodide staining based flow cytometry analysis (reference value: 23.7%); assay type: functional
KCL-22 [15] = assay: Induction of cell cycle arrest in human KCL22 cells assessed as accumulation at G0-G1 phase at 3 uM incubated for 72 hrs by propidium iodide staining based flow cytometry analysis (reference value: 57.4%); assay type: functional
KCL-22 [16] = assay: Up-regulation of RARS2 gene expression in human KCL22 cells at 3 uM incubated for 24 hrs by RT-qPCR analysis relative to control; assay type: functional, cell-based
KCL-22 [17] = assay: Inhibition of cell expansion in human KCL22 cells at 10 nM incubated for 48 hrs by trypan blue dye exclusion counting method; assay type: functional, cell-based

CN(C)CCCNC(=O)c1cc(NC(=O)c2cc(NC(=O)c3cc(NC(=O)c4cc(NC(=O)[C@H](N)CCNC(=O)c5nc(NC(=O)c6nc(NC(=O)c7cc(NC(=O)c8nccn8C)cn7C)cn6C)cn5C)cn4C)cn3C)cn2C)cn1C
Activity (Homo sapiens [1]): Active | Activity (KCL-22 [2]): 10.8% | inhibition (KCL-22 [3]): Active | Activity (Homo sapiens [4]): Active | Activity (KCL-22 [5]): 3.84% | Activity (Homo sapiens [6]): Active | Activity (Homo sapiens [7]): Active | inhibition (KCL-22 [8]): Active | Activity (Homo sapiens [9]): Active | Activity (KCL-22 [10]): Active | Activity (Homo sapiens [11]): Active | Activity (Homo sapiens [12]): Active | CI (KCL-22 [13]): >1 | Activity (KCL-22 [14]): 26.4% | Activity (KCL-22 [15]): 58.1% | Activity (KCL-22 [16]): Active

Cc1cn(-c2cc(NC(=O)c3ccc(C)c(Nc4nccc(-c5cccnc5)n4)c3)cc(C(F)(F)F)c2)cn1
inhibition (KCL-22 [17]): Active
